Results published in US5084450A, “Novel steroids” (Roussel Uclaf, priority 1990, dated 1992).

How the values were obtained:
[1] = biological target: T1, specific receptor of progesterone (Oryctolagus cuniculus, UniProt P06186); assay: Hormonal receptor method: displacement of tritiated product R from rabbit uterus cytosol (relative binding affinity vs progesterone); details: for RBA 2 hours / RBA 24 hours: relative affinity, tritiated product R; for RBA 2 hours: progesterone = 100, incubation at 0° C. for 2 hours; for RBA 24 hours: progesterone = 100, incubation at 0° C. for 24 hours
T1 construct: the uteri were removed and homogenized; from tissue; host or cells: rabbit uterus, cytosol (105,000 g supernatant), estradiol-treated impuberal rabbits
T1 sequence (P06186 1-930): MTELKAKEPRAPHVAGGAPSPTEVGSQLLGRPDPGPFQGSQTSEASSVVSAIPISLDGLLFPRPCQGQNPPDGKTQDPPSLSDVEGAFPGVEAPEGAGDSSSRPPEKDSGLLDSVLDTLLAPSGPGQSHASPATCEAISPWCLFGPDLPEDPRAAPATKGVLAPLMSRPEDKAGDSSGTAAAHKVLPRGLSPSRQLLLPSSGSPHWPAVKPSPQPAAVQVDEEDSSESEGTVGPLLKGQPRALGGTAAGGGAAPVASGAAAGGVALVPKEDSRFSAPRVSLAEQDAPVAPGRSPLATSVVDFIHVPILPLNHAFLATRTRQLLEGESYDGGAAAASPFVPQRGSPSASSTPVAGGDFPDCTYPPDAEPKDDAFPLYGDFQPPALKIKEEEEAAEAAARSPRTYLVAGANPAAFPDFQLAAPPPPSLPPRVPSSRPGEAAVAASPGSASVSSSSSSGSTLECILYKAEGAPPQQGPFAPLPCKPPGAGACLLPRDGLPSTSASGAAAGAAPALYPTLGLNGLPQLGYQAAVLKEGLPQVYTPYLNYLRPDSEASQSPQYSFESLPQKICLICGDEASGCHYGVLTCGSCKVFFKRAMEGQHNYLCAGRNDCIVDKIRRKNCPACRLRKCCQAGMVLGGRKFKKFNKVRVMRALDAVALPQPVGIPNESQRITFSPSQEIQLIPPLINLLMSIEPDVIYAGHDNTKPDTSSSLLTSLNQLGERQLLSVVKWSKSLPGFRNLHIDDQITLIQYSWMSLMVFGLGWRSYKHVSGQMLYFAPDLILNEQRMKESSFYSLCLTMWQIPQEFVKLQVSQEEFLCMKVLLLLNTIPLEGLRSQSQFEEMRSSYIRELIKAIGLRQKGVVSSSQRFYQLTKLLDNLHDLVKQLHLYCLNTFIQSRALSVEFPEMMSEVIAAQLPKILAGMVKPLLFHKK
Experimental: a) The progestomimetic activity of the products of Examples 1 and 2 was studied by the method of hormonal receptors described by RAYNAUD et al in "J. Ster. BIOCHEM" 1975, Vol. 6, 615 to 622 and in "Physiology and Genetics of Reproduction", 1975 part A p. 143 to 160. The technique was as follows: […] of estradiol were administered to impuberal rabbits per-cutaneously. Five days after this treatment, the animals were killed, the uteri were removed and homogenized in a 10 mM tromethamine, 0.25 M saccharose, HCl pH 7.4 buffer. The homogenate was centrifuged at 105,000 g for one hour and the supernatant liquid or cytosol was adjusted to have a dilution of 1/50 (weight/volume). Tubes with the same volume of cytosol were incubated at 0° C. for two hours with a fixed concentration of tritiated 17,21-dimethyl-19-nor- Δ^4,9 -pregandiene-3,20-dione, called hereafter tritiated product R, in the presence or not of an increasing concentration of radio-inert 17,21-dimethyl-19-nor-Δ^4,9 -pregnadiene-3,20-dione called hereafter cold product R, of progesterone or of product under test. After two hours and after 24 hours, the radioactivity of bound tritiated product R was determined by the technique of absorption with cabon-dextran (1.25%-0.625%).
Then the following was traced: the straight line parallel to the axis of the abscesses, of the coordinate [formula]
Bo being the maximum quantity of bound tritiated product R, measured in the incubate containing only tritiated product R, Bmin being the minimum quantity of bound tritiated product R (non-specific), measured in the incubate containing tritiated product R plus a large excess of cold product R (2500 10^-9 M), the curves representing the percentages of bound tritiated product [formula] as a function of the logarithm of the concentrations of added cold product.
The intersections of the straight line I50 and the curves allowed the values CP and CX to be determined. CP: concentration of cold progesterone which inhibited by 50% the fixing of the tritiated product R. CX: concentration of the product under test which inhibited by 50% the fixing of the tritiated product R.
The relative affinity of the product under test or RBA is given by the formula

impuberal rabbits = assay: CLAUBERG test (lacy proliferation of the endometrium); format: in vivo, rabbit
Experimental: b) The progestomimetic activity of the product of Example 2 was determined by the CLAUBERG test. According to this test, groups of three impuberal rabbits were sensitized before-hand by the administration of estradiol sub-cutaneously for five days at a daily dose of 5 micrograms. Two days later, they were treated daily for five days with the medicament under study sub-cutaneously.
The product of Example 2 was used in solution in sesame oil containing 5% benzyl alcohol.

| Structure (SMILES) | affinity for the specific receptor of progesterone (conclusion in words) [1] | RBA 2 hours [1] | RBA 24 hours [1] | Mac Phail UNITS (impuberal rabbits; 0.3 μg/rabbit/day sub-cutaneously for five days, estradiol-sensitized impuberal rabbits, sesame oil with 5% benzyl alcohol) | Mac Phail UNITS (impuberal rabbits; 1 μg/rabbit/day sub-cutaneously for five days, estradiol-sensitized impuberal rabbits, sesame oil with 5% benzyl alcohol) | Mac Phail UNITS (impuberal rabbits; 3 μg/rabbit/day sub-cutaneously for five days, estradiol-sensitized impuberal rabbits, sesame oil with 5% benzyl alcohol) | progestomimetic activity (conclusion in words) (impuberal rabbits; CLAUBERG test, sub-cutaneous, impuberal rabbits) | Mac Phail UNITS (impuberal rabbits; daily dose of 10 micrograms, sub-cutaneously, impuberal rabbits) |
| --- | --- | --- | --- | --- | --- | --- | --- | --- |
| C[C@]12CCC3=C4CCC(=O)C=C4CC[C@H]3[C@@H]1CC[C@@]21CCCC1=O [Example 2, spiro (cyclopentane-1,17'β -Δ4,9-estradiene)-2,3'-dione] | very strong affinity | 344 | 912 | 0.5 Mac Phail units | 1.8 Mac Phail units | 2.8 Mac Phail units | very strong progestomimetic activity | 2.8 Mac Phail units |
| C[C@]12CC[C@H]3[C@@H](CCC4=CC(=O)CC[C@@H]43)[C@@H]1CC[C@@]21CCCC1=O [Example 1, Spiro (cyclopentane-1,17'β-Δ4'-estrene)-2,3'-dione] | very strong affinity | 312 | 1012 |  |  |  |  |  |
